Patent US20250248979A1, “NOVEL GPX4 INHIBITORS AND USES THEREOF” (THE TRUSTEES OF COLUMBIA UNIVERSITY IN THE CITY OF NEW YORK, priority 2022, published 2025)
Where two headings read alike, the source gives them in different places.

Assays:
HT-1080 cells = experiment: Cellular dose response assay, HT-1080 with and without Fer-1; type: cell-based, human; conditions: for Selectivity: ferroptosis selectivity, IC50 with Fer-1 / IC50
Source text: HT-1080 (human [Homo sapiens] […] fibrosarcoma), A-673 (human [Homo sapiens] […] Ewing's sarcoma), and SK-HEP-1 (human [Homo sapiens] […] hepatic adenocarcinoma), cells were obtained from ATCC. Huh7 (human [Homo sapiens] […] hepatocellular carcinoma), HLF (human [Homo sapiens] […] hepatocellular carcinoma), HepG2 (human [Homo sapiens] […] hepatocellular carcinoma), cells were obtained from the Cancer Cell Bank at Columbia University Irving Medical Center. HT-1080, A-673, Huh-7, and HLF cells were grown in Dulbecco's Modified Eagle Medium (DMEM) supplemented with 10% heat inactivated fetal bovine serum (HI-FBS), 1% non-essential amino acids, and 1% penicillin streptomycin. HepG2 and SK-HEP-1 cells were grown in Eagle's Minimum Essential Medium (EMEM) supplemented with 10% HI-FBS, and 1% penicillin-streptomycin. All cells were cultured at 37° C. and 5% CO2.
HT-1080, HepG2, Huh7, HLF, and SK-HEP-1 cells were seeded into opaque white 384-well plates at 1500 cells per well then incubated at 37° C. with 5% CO2 overnight. The next day, compounds of interest were dissolved in DMSO and 12-point 2-fold dilution series were prepared with and without Fer-1. Cells were treated in triplicate (final DMSO concentration of 0.4% in all wells, including DMSO-only control wells) and incubated for a further 48 hours at 37° C. and 5% CO2. Cell viability was evaluated using CellTiter-Glo (Promega G7573) and luminescence was recorded on a Victor 5 plate reader. Data were analyzed in GraphPad Prism 9 and error bars represent standard deviation values for three technical replicates in a representative experiment.

GPX4 = target: T1, GPX4 (Homo sapiens, UniProt P36969); experiment: GPX4 activity assay in cell lysates (NADPH-coupled); type: biochemical; parameters: endogenous in cells; host or cells: A-673 cell lysate
T1 sequence (P36969 1-170 isoform P36969-2): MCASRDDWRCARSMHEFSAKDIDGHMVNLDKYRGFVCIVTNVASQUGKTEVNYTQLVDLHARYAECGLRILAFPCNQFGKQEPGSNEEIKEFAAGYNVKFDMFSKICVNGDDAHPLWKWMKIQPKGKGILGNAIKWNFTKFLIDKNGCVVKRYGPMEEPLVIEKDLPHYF
Procedure, shortened: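 Native GPX4 in lysates of A-673 cells grown with 20 nM sodium selenite; lysate preincubated with compound 45 min at 37 °C in pH 8.0 buffer with 3 mM GSH, 0.5 mM NADPH and glutathione reductase. Reaction started with phosphatidylcholine hydroperoxide; NADPH consumption followed at 340 nm over 25 min; triplicates.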

[1] = with Fer-1, Table 10, read-out: IC50 (μM) HT1080 + Fer-1
[2] = without Fer-1, Table 10, read-out: IC50 (μM) HT1080
[3] = generation 1, mean ± s.d., n = 3

SMILES	Selectivity (HT-1080 cells)	IC50 (HT-1080 cells; [1])	IC50 (HT-1080 cells; [2])	other results
COc1ccc(-c2ccc3c(C(=O)NC(C)(C)COC(=O)CCl)n(Cc4ccc(Cl)c(Cl)c4)nc3c2)cc1Cl [QW-972]	1.5	5.5 µM	3.6 µM	–
COc1c(Cl)cc(-c2ccc3c(C(=O)NC(C)(C)COC(=O)CCl)nn(Cc4cc(Cl)cc(Cl)c4)c3c2)cc1Cl [QW-998]	>114.3	> 40 µM	0.35 µM	–
COc1ccc(-c2ccc3c(C(=O)NC(C)(C)COC(=O)CCl)nn(Cc4ccc(Cl)nc4)c3c2)cc1Cl [QW-897]	7.5	9 µM	1.2 µM	–
CC(C)(COC(=O)CBr)NC(=O)c1nn(Cc2cc(Cl)cc(Cl)c2)c2cc(-c3ccc(N4CCOCC4)c(Cl)c3)ccc12 [QW-1004]	2.3	8.9 µM	3.8 µM	–
CC(C)(COC(=O)CCl)NC(=O)c1nn(Cc2ccc(Cl)nc2)c2cc(-c3ccc(N4CCOCC4)c(Cl)c3)ccc12 [QW-898]	6.8	8.1 µM	1.2 µM	–
COC(=O)c1ccc(-c2ccc3c(C(=O)NC(C)(C)COC(=O)CCl)nn(Cc4cc(Cl)cc(Cl)c4)c3c2)cc1Cl [QW-992]	7.5	23.3 µM	3.1 µM	–
CCOc1ccc(-c2ccc3c(C(=O)NC(C)(C)COC(=O)CCl)nn(Cc4cc(Cl)cc(Cl)c4)c3c2)cc1Cl [QW-983]	8.7	19.2 µM	2.2 µM	–
CC=CC(=O)OCC(C)(C)NC(=O)c1nn(Cc2cc(Cl)cc(Cl)c2)c2cc(-c3ccc(N4CCOCC4)c(Cl)c3)ccc12 [QW-1002]	–	> 40 µM	> 40 µM	–
CC(C)(COC(=O)c1ccc(S(C)(=O)=O)c([N+](=O)[O-])c1)NC(=O)c1nn(Cc2cc(Cl)cc(Cl)c2)c2cc(-c3ccc(N4CCOCC4)c(Cl)c3)ccc12 [QW-1006]	–	> 40 µM	> 40 µM	–
CC(C)(COC(=O)CCl)NC(=O)c1c2ccc(-c3ccc(N4CCOCC4)c(Cl)c3)cc2nn1Cc1ccc(Cl)c(Cl)c1 [QW-973]	1.4	5.8 µM	4.2 µM	–
CC(C)Oc1c(Cl)cc(-c2ccc3c(C(=O)NC(C)(C)COC(=O)CCl)nn(Cc4cc(Cl)cc(Cl)c4)c3c2)cc1Cl [QW-996]	17.8	12.8 µM	0.72 µM	–
CC(C)(CNC(=O)CCl)NC(=O)c1nn(Cc2cc(Cl)cc(Cl)c2)c2cc(-c3ccc(N4CCOCC4)c(Cl)c3)ccc12 [QW-929]	2.9	4.6 µM	1.6 µM	–
CC(C)(COC(=O)CCl)NC(=O)c1nn(Cc2cc(C(F)(F)F)cc(C(F)(F)F)c2)c2cc(-c3ccc(N4CCOCC4)c(Cl)c3)ccc12 [QW-931]	6.6	34.3 µM	5.2 µM	–
COc1ccc(-c2ccc3c(c2)c(C(=O)NC(C)(C)COC(=O)CCl)nn3Cc2cc(Cl)cc(Cl)c2)cc1Cl [QW-979]	1.8	12.5 µM	6.9 µM	–
CC(C)(COC(=O)CCl)NC(=O)c1c2ccc(-c3ccc(N4CCOCC4)c(Cl)c3)cc2nn1Cc1cc(Cl)cc(Cl)c1 [QW-937]	2.7	2.7 µM	–	fold reduced activity relative to QW-852 (HT-1080 cells; HT1080): 25 fold; IC50 (HT-1080 cells; read-out: IC50 HT1080): 1 µM
CSc1ccc(-c2ccc3c(C(=O)NC(C)(C)COC(=O)CCl)nn(Cc4cc(Cl)cc(Cl)c4)c3c2)cc1Cl [QW-984]	>53	> 40 µM	0.75 µM	–
CC(C)(COC(=O)CCl)NC(=O)c1nn(Cc2cc(Cl)cc(Cl)c2)c2cc(-c3ccc(OC(F)(F)F)c(Cl)c3)ccc12 [QW-991]	32.0	21.1 µM	0.66 µM	–
CC(C)(COC(=O)CCl)NC(=O)c1c2ccc(Br)cc2nn1Cc1ccc(-c2ccc(N3CCOCC3)c(Cl)c2)cc1 [QW-912]	3.4	5.1 µM	1.5 µM	–
O=C(CCl)OCCCNC(=O)c1cc2cc(Cl)ccc2[nH]1 [QW-304]	–	–	–	GPX4% inhibition at 200 (μM) (GPX4; [3]): 78.3 ± 4.3%
COc1c(Cl)cc(-c2ccc3c(C(=O)NC(C)(C)COC(=O)CCl)nn(Cc4ccc(Cl)cc4)c3c2)cc1Cl [QW-843]	–	–	–	GPX4% inhibition at 2.5 μM (GPX4; 4th generation): 76.8 ± 11.4%
Cn1nc(C(=O)NC(C)(C)COC(=O)CCl)c2ccc(-c3cccc(C=O)c3)cc21 [QW-599]	–	–	–	GPX4% inhibition at 2.5 μM (GPX4): 51.0 ± 4.4%
Cn1nc(C(=O)NC(C)(C)COC(=O)CCl)c2ccc(-c3ccc4c(c3)OCCO4)cc21 [QW-457]	–	–	–	GPX4% inhibition at 5 μM (GPX4): 54.4 ± 7.2%

SMILES	Selectivity (HT-1080 cells)	IC50 (HT-1080 cells; [1])	IC50 (HT-1080 cells; [2])	other results
COc1cc(-c2ccc3c(C(=O)NC(C)(C)COC(=O)CCl)nn(C)c3c2)ccc1Cl [QW-556]	–	–	–	GPX4 inhibitory activity, result in words (GPX4): reduced the inhibitory activity; GPX4% inhibition at 5 μM (GPX4): 80.2 ± 1.8%
C=CC(=O)OCC(C)(C)NC(=O)c1c[nH]c2ccccc12 [QW-282]	–	–	–	GPX4% inhibition at 200 (μM) (GPX4; [3]): 12.7 ± 4.7%
Cc1ccc2[nH]c(C(=O)NC(C)(C)COC(=O)CBr)cc2c1 [QW-161]	–	–	–	GPX4% inhibition at 200 (μM) (GPX4; [3]): 65.0 ± 7.2%
COc1ccc2cc(C(=O)NC(C)(C)CCOC(=O)CBr)[nH]c2c1 [QW-285]	–	–	–	GPX4% inhibition at 200 (μM) (GPX4; [3]): 77.9 ± 7.6%
CC(C)(COC(=O)CBr)NC(=O)c1cc2ccccc2s1 [QW-275]	–	–	–	GPX4% inhibition at 200 (μM) (GPX4; [3]): 63.1 ± 3.6%
COc1ccc(-c2ccc3c(C(=O)NC(C)(C)COC(=O)CCl)nn(C)c3c2)cc1Br [QW-611]	–	–	–	GPX4% inhibition at 2.5 μM (GPX4): 81.5 ± 1.9%
CSc1ccc(-c2ccc3c(C(=O)NC(C)(C)COC(=O)CCl)nn(C)c3c2)cc1Cl [QW-558]	–	–	–	GPX4% inhibition at 5 μM (GPX4): 91.2 ± 2.3%
Cn1nc(C(=O)NC(C)(C)C(O)S(=O)(=O)[O-])c2ccccc21.[Na+] (stereo not drawn) [QW-389]	–	–	–	GPX4% inhibition at 20 (μM) (GPX4; generation 2): 32.2 ± 2.5%
C=CC(=O)OCC(C)(C)NC(=O)c1cc2cc(Cl)ccc2[nH]1 [QW-167]	–	–	–	GPX4% inhibition at 200 (μM) (GPX4; [3]): 7.8 ± 12.8%
Cn1nc(C(=O)NC(C)(C)COC(=O)CCl)c2ccc(-c3ccc(OCc4ccccc4)cc3)cc21 [QW-503]	–	–	–	GPX4% inhibition at 5 μM (GPX4): 65.3 ± 3.2%
COC(=O)C=CC(=O)OCC(C)(C)NC(=O)c1nn(C)c2ccccc12 [QW-412]	–	–	–	GPX4% inhibition at 5 μM (GPX4; generation 2): −5.7 ± 8.0%
COc1ccc2c(C(=O)NC(C)(C)COC(=O)CCl)n[nH]c2c1 [QW-326]	–	–	–	GPX4% inhibition at 200 (μM) (GPX4; generation 2): 84.3 ± 8.9%
Cn1nc(C(=O)NC(C)(C)COC(=O)CCl)c2ccc(-c3ccc(C(F)(F)F)c(Cl)c3)cc21 [QW-794]	–	–	–	GPX4% inhibition at 2.5 μM (GPX4): 78.5 ± 10.5%
Cn1nc(C(=O)NC(C)(C)COC(=O)CCl)c2ccc(-c3cccc(OC(=O)CCl)c3)cc21 [QW-510]	–	–	–	GPX4% inhibition at 5 μM (GPX4): 67.2 ± 1.9%
COc1ccc2[nH]cc(C(=O)NC(C)(C)COC(=O)CCl)c2c1 [QW-322]	–	–	–	GPX4% inhibition at 200 (μM) (GPX4; [3]): 16.0 ± 4.9%
COC(=O)c1ccc(-c2ccc3c(C(=O)NC(C)(C)COC(=O)CCl)nn(C)c3c2)cc1Cl [QW-571]	–	–	–	GPX4% inhibition at 5 μM (GPX4): 82.5 ± 5.2%
Cn1nc(C(=O)NC(C)(C)COC(=O)CCl)c2ccc([N+](=O)[O-])cc21 [QW-380]	–	–	–	GPX4% inhibition at 5 μM (GPX4; generation 2): 62.1 ± 2.4%
CC(C)(COC(=O)CBr)NC(=O)c1cc2ccccc2[nH]1 [QW-160]	–	–	–	GPX4% inhibition at 200 (μM) (GPX4; [3]): 33.3 ± 6.0%
CC(C)(COC(=O)CBr)NC(=O)c1ccc[nH]1 [QW-291]	–	–	–	GPX4% inhibition at 200 (μM) (GPX4; [3]): 20.0 ± 4.0%
Cn1nc(C(=O)NCCCCCC=O)c2ccc(Br)cc21 [QW-497]	–	–	–	GPX4% inhibition at 5 μM (GPX4; generation 2): −15.1 ± 8.4%
Cn1nc(C(=O)NC(C)(C)CC=O)c2ccccc21 [QW-388]	–	–	–	GPX4% inhibition at 20 (μM) (GPX4; generation 2): 1.6 ± 1.9%
CN(C)c1ccc(-c2ccc3c(C(=O)NC(C)(C)COC(=O)CCl)nn(C)c3c2)cc1 [QW-568]	–	–	–	GPX4% inhibition at 5 μM (GPX4): 67.5 ± 3.9%; GPX4 inhibition rate (GPX4; concentration not given): 50%
